Measured values as given in patent US6875746B1, “Anticancer anthraquinones and method of use thereof” (Board of Trustees of Michigan State University, priority 2002, dated 2005).
≈ marks a conversion by molar mass, not a printed value. Entries after “also recorded” stand apart in the source; their conditions may differ. Where two headings read alike, the source gives them in different places.

Tests used:
HCT-116 (colon) = experiment: cancer cell growth inhibition assay (sulforhodamine B), HCT-116; assay type: cell-based; settings: Homo sapiens, read-out: GI50 ± SE, HCT-116 (colon)
Description: (§1) The compounds were tested for their activity against breast, central nervous system (CNS), colon, and lung human tumor cell lines. The breast (MCF-7), CNS(SF-268), and lung (NCI-H460) cultures were purchased from the National Cancer Institute (Bethesda, Md.) while the colon culture (HCT-116) was purchased from the American Type Culture Collection (Arlington, Va.). All cell lines were maintained in a humidified chamber at 37° C. with 5% CO2 in RPMI-1640 medium supplemented with 10% fetal bovine serum, penicillin (1 unit/100 mL), and streptomycin (1 μg/100 mL). All cell lines were sub-cultured according to their individual growth profiles in order to ensure exponential growth throughout the experiments. Breast (10,000 cells/well), CNS (15,000 cells/well), colon (7,500 cells/well), and lung (7,500 cells/well) cancer cells were aliquoted (100 μL) into 96-well plates and allowed to grow for 24 hours before the addition of the test compounds to the media. The compounds were dissolved in DMSO and diluted in sterile media as necessary to obtain the appropriate concentration. […] Test compounds, standards, and DMSO control were incubated for 48 hours, after which the assay was terminated via the addition of cold trichloroacetic acid. The plates were incubated for one hour at 4° C., washed with deionized water (five times), and air-dried. A 100 μL aliquot of 0.4% sulforhodamine B stain in 1% acetic acid was added to each well and the plates were incubated for 30 minutes at room temperature. Following incubation, the wells were rinsed with 1% acetic acid (five times) and the bound stain was dissolved in 100 μL of 10 mM TRIZMA base. The plates were shaken for five minutes on a gyrorotary shaker after which the absorbance of each well was recorded with an automated microplate reader (model EL800, Bio-Tek Instruments, Inc., Winooski, Vt.) at 515 nm. Three independent experiments were performed in triplicate using at least five drug concentrations inclusive of the 50% growth inhibitory concentration. Results are expressed as the concentration of compound required to inhibit cellular growth 50% (GI50) ±SE.

[1] = tested on: breast (MCF-7), CNS (SF-268), colon (HCT-116) and lung (NCI-H460) human tumor cell lines; experiment: cancer cell growth inhibition assay, statements on the four cell lines together; assay type: cell-based; settings: MCF-7, SF-268, HCT-116, NCI-H460
Description: as §1, with “Results are expressed as the concentration of compound required to inhibit cellular growth 50% (GI50) ±SE.” left out

SF-268 (CNS) = experiment: cancer cell growth inhibition assay (sulforhodamine B), SF-268; assay type: cell-based; settings: Homo sapiens, read-out: GI50 ± SE, SF-268 (CNS)
Description: as §1

MCF-7 (breast) = experiment: cancer cell growth inhibition assay (sulforhodamine B), MCF-7; assay type: cell-based; settings: Homo sapiens, MCF7, read-out: GI50 ± SE, MCF-7 (breast)
Description: as §1

NCI-H460 (lung) = experiment: cancer cell growth inhibition assay (sulforhodamine B), NCI-H460; assay type: cell-based; settings: Homo sapiens, read-out: GI50 ± SE, NCI-H460 (lung)
Description: as §1

[2] = tested on: nasal (KBMRI) tumor cell line; settings: Li and McLaughlin, J. Nat. Prod. 52: 660-662 (1989); cited from earlier work
[3] = tested on: SF-268 human CNS glioblastoma cells; experiment: MTT cell viability assay, SF-268; assay type: cell-based; settings: at GI50 concentration, 48 hours, FIG. 5; compared with 8, 4, 6 and mixture 1a and 2a
Description: (§2) In this example, compounds 1, 1a, 2, 2a, 3, 4, 6, and 8 were tested for cell toxicity using an 3-[4,5-dimethylthiazol-2-yl]-2,5-diphenyltetrazolium bromide (MTT) cell viability assay. The assay monitors the conversion of MTT to the dye, formazan, by viable cells. The formazan crystals form a precipitate which is dissolved in DMSO and analyzed by spectroscopy. MTT is not converted to formazan by dead cells. Therefore, the amount of dye detected is inversely related to the toxicity of the compound being tested.
(§3) The cancer cells used were HCT 116 (colon carcinoma, human, batch # F-11276), SF-268 (CNS, glioblastoma, human, 0503138), NCI-H460 (lung, large cell carcinoma, human, 503473), and MCF-7 (breast, mammary adenocarcinoma, human, 0501975) were procured from NCI, NIH.
(§4) The cells were grown in RPMI 1640 media supplemented with 10% fetal bovine serum and maintained at 37° C. in a humidified atmosphere of 5% CO2. Cells were seeded in 96 well plates at a density of 2000 cells per well. […] To each well, 200 μL of DMSO was added immediately, shaken for 5 min, and optical density of each well was recorded at 570 nm using Universal Microplate Reader. […]
(§5) The average optical densities of three wells for each sample tested and of DMSO control were calculated. The average optical densities of samples and of DMSO control from the replicates were then calculated. […]

[4] = tested on: colon (HT-29) tumor cell line; settings: Li and McLaughlin, J. Nat. Prod. 52: 660-662 (1989); cited from earlier work
[5] = tested on: lung (A-549) tumor cell line; settings: Li and McLaughlin, J. Nat. Prod. 52: 660-662 (1989); cited from earlier work
[6] = tested on: HCT 116 human colon carcinoma cells; experiment: MTT cell viability assay, HCT 116; assay type: cell-based; settings: at GI50 concentration, 48 hours, FIG. 4
Description: as §2, §3, §4, §5

[7] = tested on: NCI-H460 human large cell carcinoma cells; experiment: MTT cell viability assay, NCI-H460; assay type: cell-based; settings: at GI50 concentration, 48 hours, FIG. 6
Description: as §2, §3, §4, §5

[8] = 48 hours incubation, sulforhodamine B stain
[9] = adriamycin values expressed in μM (footnote a), 48 hours

Compound	GI50 (HCT-116 (colon); [8]) [mg/L]	activity against all four cancer cell lines (in words) [1]	GI50 (SF-268 (CNS); [8]) [mg/L]	GI50 (MCF-7 (breast); [8]) [mg/L]	GI50 (NCI-H460 (lung); [8]) [mg/L]	ED50, nasal (KBMRI) [2] [mg/L]	toxicity in MTT assay, SF-268 (CNS cancer) [3]	ED50, colon (HT-29) [4] [mg/L]	ED50, lung (A-549) [5] [mg/L]	toxicity in MTT assay, HCT 116 (Colon cancer) [6]	toxicity in MTT assay, NCI H460 (Lung cancer) [7]	GI50 (HCT-116 (colon); [9]) [µM]	GI50 (SF-268 (CNS); [9]) [µM]	GI50 (MCF-7 (breast); [9]) [µM]	GI50 (NCI-H460 (lung); [9]) [µM]
O=C1c2cccc(O)c2C(=O)c2c1cc(CO)c(O)c2O [compound 6, 1,2,8-trihydroxy-3-hydroxymethyl anthraquinone]	5 ± 0.3	consistent activity; also recorded: concentrations similar to that of compound 3	3.8 ± 0.7	2.8 ± 0.3	7.3 ± 0.7	–	–	–	–	–	–	–	–	–	–
Cc1cc2c(c(O)c1O)C(=O)c1c(O)cccc1C2=O [compound 3, 1,2,8-trihydroxy-3-methyl anthraquinone]	6.3 ± 0.8	consistent activity	2.4 ± 1.8	6.5 ± 1.2	6.3 ± 0.8	5.7 (≈ 21.1 µM)	higher toxicity	2.8 (≈ 10.4 µM)	3.1 (≈ 11.5 µM)	higher toxicity than the rest of the anthraquinones	–	–	–	–	–
O=C(O)c1cc(O)c2c(c1)C(=O)c1cccc(O)c1C2=O [compound 8, 1,8-dihydroxy-3-carboxy anthraquinone]	21.1 ± 1.8	moderate activity	16.3 ± 1.8	17.2 ± 0.8	15.4 ± 1.7	–	–	–	–	–	lest toxic	–	–	–	–
COc1cccc2c1C(=O)c1c(O)c3c(c(O)c1C2=O)C[C@@](O)(C(=O)CO)C[C@@H]3O[C@H]1C[C@H](N)[C@H](O)[C@H](C)O1 [adriamycin, reference compound]	–	–	–	–	–	–	–	–	–	–	–	2.1 ± 0.6	1.9 ± 0.7	1.7 ± 0.2	1.7 ± 0.4
